The source of these data is paper PMC10466336, “Chemical Probe for Imaging of Polo-like Kinase 4 and Centrioles” (JACS Au, 2023).

The target in assay [1] is T1, 6xHis-tagged Plk4 kinase domain (KD) (Homo sapiens, UniProt O00444).
T1 construct: Plasmids encoding fragments of Plk4 kinase domain (2-275) with 6xHis-tag were cloned in pET system vectors; made in house; host or cells: E. coli BL21 gold (DE3)
T1 sequence (O00444 2-275): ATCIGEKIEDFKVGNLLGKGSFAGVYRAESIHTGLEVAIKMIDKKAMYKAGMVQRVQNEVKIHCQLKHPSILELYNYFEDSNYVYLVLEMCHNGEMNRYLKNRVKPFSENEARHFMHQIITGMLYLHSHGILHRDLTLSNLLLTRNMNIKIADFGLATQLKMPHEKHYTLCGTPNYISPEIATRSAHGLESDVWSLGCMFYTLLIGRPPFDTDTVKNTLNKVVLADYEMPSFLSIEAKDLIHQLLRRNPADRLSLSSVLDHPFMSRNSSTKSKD
In words: Estimation of fluorescence increase (fluorogenicity) with Plk4 kinase domain versus BSA. The source says: Moreover, we substituted the basic acetyl-piperazine nitrogen in compounds (1 and 2a) with an acetyl-piperidine, to avoid probe protonation and accumulation in endolysosomal compartments (Figure S1A, B).[23] This yielded a second generation of centrinone-based probes (compounds 2b–d). These probes were characterized first in vitro by measuring their fluorogenicity in the presence of the 6xHis-tagged Plk4 kinase domain (KD) (Table 1). […] Next, we measured the binding affinities of the probes to the Plk4 kinase domain via a competition binding assay based on fluorescence polarization. […]
1.3.5 Estimation of fluorescence increase
The probes were analysed as described in Lukinavičius et al. 2014 1. Briefly, SiR650 or SiR595- […]
purified Plk4 kinase domain (10 µM in 20 mM Tris, 200 mM NaCl at pH 7.5) or to a bovine serum albumin (BSA) (Sigma) solution (0.2 mg/mL in 20 mM Tris, 200 mM NaCl at pH 7.5). Final concentration of the probe was 3 µM. The samples were incubated for 1 h at 37 °C, and fluorescence was measured in a 96-well plate (Greiner Bio-One) on a plate reader (TECAN Spark® 20M).
Fluorescence emission was recorded from 570 nm to 750 nm for SiR595 probes, and 630 nm to 750 nm for SiR650 while exciting at 550 nm ± 10 nm for SiR595 probes and at 610 ± 10 nm for SiR650 probes.
A fluorescence excitation scan was recorded by measuring the emission at 660 ± 10 nm for SiR595 and 720 ± 10 nm for SiR650 probes, while exciting from 500 nm to 640 nm for SiR595 probes and from […]

Assay [2] addresses T2, endogenous Plk4 in HeLa cells expressing Centrin1-GFP (Homo sapiens, UniProt O00444).
T2 construct: live cell imaging of endogenous Plk4; endogenous in cells; host or cells: HeLa cells stably expressing Centrin1-GFP
T2 sequence (O00444 1-970): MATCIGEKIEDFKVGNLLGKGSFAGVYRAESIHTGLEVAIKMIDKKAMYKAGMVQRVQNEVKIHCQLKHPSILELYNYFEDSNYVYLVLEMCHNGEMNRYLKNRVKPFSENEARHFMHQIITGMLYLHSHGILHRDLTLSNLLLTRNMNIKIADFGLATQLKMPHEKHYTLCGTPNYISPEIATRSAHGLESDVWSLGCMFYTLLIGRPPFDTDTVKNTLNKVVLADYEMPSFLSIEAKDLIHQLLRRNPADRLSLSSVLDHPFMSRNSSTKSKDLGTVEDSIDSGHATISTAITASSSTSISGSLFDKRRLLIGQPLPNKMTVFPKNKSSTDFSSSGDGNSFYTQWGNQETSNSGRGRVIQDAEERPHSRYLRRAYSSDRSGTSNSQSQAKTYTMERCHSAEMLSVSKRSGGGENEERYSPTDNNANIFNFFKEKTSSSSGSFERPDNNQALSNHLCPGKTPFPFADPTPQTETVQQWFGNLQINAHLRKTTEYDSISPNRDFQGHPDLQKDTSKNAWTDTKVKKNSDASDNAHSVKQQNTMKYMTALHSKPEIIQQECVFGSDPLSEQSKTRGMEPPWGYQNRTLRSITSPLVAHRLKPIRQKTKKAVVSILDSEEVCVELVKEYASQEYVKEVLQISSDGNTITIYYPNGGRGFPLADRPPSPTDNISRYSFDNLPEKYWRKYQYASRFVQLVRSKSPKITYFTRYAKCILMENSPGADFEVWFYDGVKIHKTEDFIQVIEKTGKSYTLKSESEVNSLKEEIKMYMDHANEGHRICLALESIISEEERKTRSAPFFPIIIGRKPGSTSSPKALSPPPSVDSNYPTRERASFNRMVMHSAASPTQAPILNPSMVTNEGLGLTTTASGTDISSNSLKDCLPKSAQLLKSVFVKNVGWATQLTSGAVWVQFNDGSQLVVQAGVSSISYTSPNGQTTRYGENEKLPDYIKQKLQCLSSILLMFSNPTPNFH
Kind of assay: Live- and fixed-cell confocal/STED imaging of endogenous Plk4. Type of assay: cell-based. Particulars: one-step labeling, live cells.

For the compound `COc1c(Nc2cc(C)[nH]n2)nc(Sc2ccc(S(=O)(=O)Cc3cccc([N+](=O)[O-])c3F)cc2F)nc1N1CCC(CC(=O)NCCNC(=O)c2ccc(C(=O)O)c(C3=C4C=CC(=N)C=C4[Si](C)(C)c4cc(N)ccc43)c2)CC1` [2d], in assay [1] (in presence of Plk4 KD versus BSA), the “increase in fluorescence upon binding” value was 36 fold. Besides, the FPIk4/FBSA in assay [1] (mean of F(+Plk4KD)/F(+BSA) and standard deviation, N = 3, probe 3 µM, 1 h 37 °C) is 36 ± 1. For the same compound, the “labeling of endogenous Plk4 in live HeLa cells” value in assay [2] was “failed to observe specific labeling”.
